Our source for the melting point values is patent US6548495B2, “Dihydro-benzo [B] [1,4] diazepin-2-one derivatives” (Hoffmann-La Roche Inc., priority 2002, dated 2003).

Each structure is given as a SMILES string.

In turn, `Cc1cc(-c2cccc(C3=Nc4cc(N5CCOCC5)c(C(F)(F)F)cc4NC(=O)C3)c2)on1` [Example 3, 4-[3-(3-Methyl-isoxazol-5-yl)-phenyl]-7-morpholin-4-yl-8-trifluoromethyl-1,3-dihydro-benzo[b][1,4]diazepin-2-one] registered a melting point of 170 °C. In the case of `N#Cc1cccc(C2=Nc3ccc(-n4cc(C#N)c(-c5ccccc5Cl)c4)cc3NC(=O)C2)c1` [Example 5, 4-(2-Chloro-phenyl)-1-[2-(3-cyano-phenyl)-4-oxo-4,5-dihydro-3H-benzo[b][1,4]diazepin-7-yl]-1H-pyrrole-3-carbonitrile], the melting point was 252 °C (dec.). Under `N#Cc1cccc(C2=Nc3ccc(-n4cc(C#N)c(-c5ccccc5)c4)cc3NC(=O)C2)c1` [Example 6, 1-[2-(3-Cyano-phenyl)-4-oxo-4,5-dihydro-3H-benzo[b][1,4]diazepin-7-yl]-4-phenyl-1H-pyrrole-3-carbonitrile] stands 274 °C (dec.); under `O=C1CC(c2cccc(I)c2)=Nc2ccc(-n3cccc3)cc2N1` [Example 7, 4-(3-Iodo-phenyl)-8-pyrrol-1-yl-1,3-dihydro-benzo[b][1,4]diazepin-2-one], 215 to 217 °C (dec.); under `NC(=O)c1cccc(C2=Nc3ccc(-n4cccc4)cc3NC(=O)C2)c1` [Example 8, 3-(4-oxo-7-Pyrrol-1-yl-4,5-dihydro-3H-benzo[b][1,4]diazepin-2-yl)-benzamide], 238 to 239 °C (dec.). The result for `COCCOc1cc2c(cc1-n1cccc1)NC(=O)CC(c1cccc(C#N)c1)=N2` [Example 10, 3-[8-(2-Methoxy-ethoxy)-4-oxo-7-pyrrol-1-yl-4,5-dihydro-3H-benzo[b][1,4]diazepin-2-yl]-benzonitrile] reads 189 to 195 °C; that for `COC(=O)c1cccn1-c1ccc2c(c1)NC(=O)CC(c1cccc(C#N)c1)=N2` [Example 15, 1-[2-(3-Cyano-phenyl)-4-oxo-4,5-dihydro-3H-benzo[b][1,4]diazepin-7-yl]-1H-pyrrole-2-carboxylic Acid Methyl Ester], > 207 °C (dec.); that for `CCOC(=O)c1csc(-c2cccc(C3=Nc4ccc(-n5cccc5)cc4NC(=O)C3)c2)n1` [Example 19, 2-[3-(4-oxo-7-Pyrrol-1-yl-4,5-dihydro-3H-benzo[b][1,4]diazepin-2-yl)-phenyl]-thiazole-4-carboxylic Acid Ethyl Ester], 198 to 201 °C.

Molecule `O=C1CC(c2cccc(-c3ocnc3C(=O)NCCO)c2)=Nc2ccc(-n3cccc3)cc2N1` [Example 24, 5-[3-(4-oxo-7-Pyrrol-1-yl-4,5-dihydro-3H-benzo[b][1,4]diazepin-2-yl)-phenyl]-oxazole-4-carboxylic Acid (2-Hydroxy-ethyl)-amide] gave a melting point of 228 to 230 °C. Under `O=C1CC(c2cccc(-c3nc(CO)co3)c2)=Nc2ccc(-n3cccc3)cc2N1` [Example 26, 4-[3-(4-Hydroxymethyl-oxazol-2-yl)-phenyl]-8-pyrrol-1-yl-1,3-dihydro-benzo[b][1,4]diazepin-2-one] stands 240 to 242 °C; under `CCOC(=O)c1nc(-c2cccc(C3=Nc4ccc(-n5cccc5)cc4NC(=O)C3)c2)cs1` [Example 28, 4-[3-(4-oxo-7-Pyrrol-1-yl-4,5-dihydro-3H-benzo[b][1,4]diazepin-2-yl)-phenyl]-thiazole-2-carboxylic Acid Ethyl Ester], 213 to 215 °C. For `Cc1cc(-c2cccc(C3=Nc4ccc(-n5cccc5)cc4NC(=O)C3)c2)on1` [Example 29, 4-[3-(3-Methyl-isoxazol-5-yl)-phenyl]-8-pyrrol-1-yl-1,3-dihydro-benzo[b][1,4]diazepin-2-one], the melting point fell in the range of 248 to 250 °C. The result for `NC(=O)c1nc(-c2cccc(C3=Nc4ccc(-n5cccc5)cc4NC(=O)C3)c2)cs1` [Example 30, 4-[3-(4-oxo-7-Pyrrol-1-yl-4,5-dihydro-3H-benzo[b][1,4]diazepin-2-yl)-phenyl]-thiazole-2-carboxylic Acid Amide] reads 267 to 269 °C; that for `O=C1CC(c2cccc(-c3csc(C(=O)NCCO)n3)c2)=Nc2ccc(-n3cccc3)cc2N1` [Example 32, 4-[3-(4-oxo-7-Pyrrol-1-yl-4,5-dihydro-3H-benzo[b][1,4]diazepin-2-yl)-phenyl]-thiazole-2-carboxylic Acid (2-Hydroxy-ethyl)-amide], 236 to 238 °C; that for `O=C1CC(c2cccc(-c3csc(CO)n3)c2)=Nc2ccc(-n3cccc3)cc2N1` [Example 33, 4-[3-(2-Hydroxymethyl-thiazol-4-yl)-phenyl]-8-pyrrol-1-yl-1,3-dihydro-benzo[b][1,4]diazepin-2-one], 185 to 190 °C (dec.).

In the case of `N#CCc1cc2c(cc1I)NC(=O)CC(c1cccc(-n3ccnc3)c1)=N2` [Example 37, [4-(3-Imidazol-1-yl-phenyl)-8-iodo-2-oxo-2,3-dihydro-1H-benzo[b][1,4]diazepin-7-yl]-acetonitrile], the melting point fell in the range of 243 to 245 °C. `O=C1CC(c2cccc(-c3cc(CO)no3)c2)=Nc2cc(N3CCOCC3)c(C(F)(F)F)cc2N1` [Example 39, 4-[3-(3-Hydroxymethyl-isoxazol-5-yl)-phenyl]-7-morpholin-4-yl-8-trifluoromethyl-1,3-dihydro-benzo[b][1,4]diazepin-2-one] showed a melting point of 196 °C.

With `CN(C)Cc1cnnn1-c1cccc(C2=Nc3cc(N4CCOCC4)c(C(F)(F)F)cc3NC(=O)C2)c1` [Example 40, 4-[3-(5-Dimethylaminomethyl-[1,2,3]triazol-1-yl)-phenyl]-7-morpholin-4-yl-8-trifluoromethyl-1,3-dihydro-benzo[b][1,4]diazepin-2-one], the melting point was found to be 180 °C.

As to `Cc1cc(-c2cccc(C3=Nc4cc(N5CCSCC5)c(C(F)(F)F)cc4NC(=O)C3)c2)on1` [Example 41, 4-[3-(3-Methyl-isoxazol-5-yl)-phenyl]-7-thiomorpholin-4-yl-8-trifluoromethyl-1,3-dihydro-benzo[b][1,4]diazepin-2-one], the melting point lay in the range of 230 to 233 °C. Under `COc1cc2c(cc1C(F)(F)F)NC(=O)CC(c1ccnc(C#N)c1)=N2` [Example 44, 4-(8-Methoxy-4-oxo-7-trifluoromethyl-4,5-dihydro-3H-benzo[b][1,4]diazepin-2-yl)-pyridine-2-carbonitrile] stands 227 °C. In the case of `COc1cc2c(cc1C(F)(F)F)NC(=O)CC(c1cccc(-c3cc(C)no3)c1)=N2` [Example 45, 7-Methoxy-4-[3-(3-methyl-isoxazol-5-yl)-phenyl]-8-trifluoromethyl-1,3-dihydro-benzo[b][1,4]diazepin-2-one], the melting point stood at 225 °C. The result for `O=C1CC(c2cccc(-n3cccn3)c2)=Nc2cc(N3CCOCC3)c(C(F)(F)F)cc2N1` [Example 49, 7-Morpholin-4-yl-4-(3-pyrazol-1-yl-phenyl)-8-trifluoromethyl-1,3-dihydro-benzo[b][1,4]diazepin-2-one] reads 166 °C. Take `O=C1CC(c2cccc(-n3cnnc3)c2)=Nc2cc(N3CCOCC3)c(C(F)(F)F)cc2N1` [Example 50, 7-Morpholin-4-yl-4-(3-[1,2,4]triazol-4-yl-phenyl)-8-trifluoromethyl-1,3-dihydro-benzo[b][1,4]diazepin-2-one]: the melting point was 233 to 236 °C. Molecule `O=C1CC(c2cccc(-n3nncc3CO)c2)=Nc2cc(F)c(C(F)(F)F)cc2N1` [Example 51, 7-Fluoro-4-[3-(5-hydroxymethyl-[1,2,3]triazol-1-yl)-phenyl]-8-trifluoromethyl-1,3-dihydro-benzo[b][1,4]diazepin-2-one] gave a melting point of 197 to 199 °C. Molecule `CCOc1cc2c(cc1C(F)(F)F)NC(=O)CC(c1cccc(-n3nncc3CNC3CC3)c1)=N2` [Example 54, 4-[3-(5-Cyclopropylaminomethyl-[1,2,3]triazol-1-yl)-phenyl]-7-ethoxy-8-trifluoromethyl-1,3-dihydro-benzo[b][1,4]diazepin-2-one] returned a melting point of 80 °C.

`CCOc1cc2c(cc1C(F)(F)F)NC(=O)CC(c1cccc(-n3ccnn3)c1)=N2` [Example 56, 7-Ethoxy-4-(3-[1,2,3]triazol-1-yl-phenyl)-8-trifluoromethyl-1,3-dihydro-benzo[b][1,4]diazepin-2-one] came in with a melting point of 215 °C. Under `N#Cc1cccc(C2=Nc3cc(N4CCOCC4)c(C#N)cc3NC(=O)C2)c1` [Example 59, 2-(3-Cyano-phenyl)-8-morpholin-4-yl-4-oxo-4,5-dihydro-3H-benzo[b][1,4]diazepine-7-carbonitrile] stands 259 °C; under `N#Cc1cc2c(cc1N1CCOCC1)N=C(c1cccc(-n3nncc3CO)c1)CC(=O)N2` [Example 60, 2-[3-(5-Hydroxymethyl-[1,2,3]triazol-1-yl)-phenyl]-8-morpholin-4-yl-4-oxo-4,5-dihydro-3H-benzo[b][1,4]diazepine-7-carbonitrile], 180 °C. The molecule `Cc1cc(-c2cccc(C3=Nc4cc(N5CCOCC5)c(C#N)cc4NC(=O)C3)c2)on1` [Example 61, 2-[3-(3-Methyl-isoxazol-5-yl)-phenyl]-8-morpholin-4-yl-4-oxo-4,5-dihydro-3H-benzo[b][1,4]diazepine-7-carbonitrile] came in with a melting point of 252 °C. Take `O=C1CC(c2cccc(-n3nncc3CO)c2)=Nc2cc(Cl)c(C(F)(F)F)cc2N1` [Example 63, 7-Chloro-4-[3-(5-hydroxymethyl-[1,2,3]triazol-1-yl)-phenyl]-8-trifluoromethyl-1,3-dihydro-benzo[b][1,4]diazepin-2-one]: the melting point was 198 °C. The result for `O=C1CC(c2cccc(-n3ncnc3CO)c2)=Nc2cc(Cl)c(C(F)(F)F)cc2N1` [Example 64, 7-Chloro-4-[3-(5-hydroxymethyl-[1,2,4]triazol-1-yl)-phenyl]-8-trifluoromethyl-1,3-dihydro-benzo[b][1,4]diazepin-2-one] reads 212 °C; that for `Cc1cc(-c2cccc(C3=Nc4cc(Cl)c(C(F)(F)F)cc4NC(=O)C3)c2)on1` [Example 65, 7-Chloro-4-[3-(3-methyl-isoxazol-5-yl)-phenyl]-8-trifluoromethyl-1,3-dihydro-benzo[b][1,4]diazepin-2-one], 252 °C.

As usually defined, the melting point is the temperature of the solid-liquid transition.
